Reference: patent US20240174674A1, “NITROGEN-CONTAINING POLYCYCLIC FUSED RING COMPOUND, PHARMACEUTICAL COMPOSITION THEREOF, PREPARATION METHOD THEREFOR, AND USE THEREOF” (APPLIED PHARMACEUTICAL SCIENCE, INC., priority 2021, published 2024)
Where two headings read alike, the source gives them in different places.

Target: RET G810R (Homo sapiens (Human), UniProt P07949, G810R)
Assay: HTRF KinEASE-TK kinase activity test, RET G810R
Conditions: for inhibitory activity against RET G810R relative to that of selpercatinib (LOXO-292): fold versus selpercatinib (LOXO-292)
[1] = read-out: RET G810R IC50, HTRF kinase assay

Sequence of RET G810R (P07949 29-1114 G810R): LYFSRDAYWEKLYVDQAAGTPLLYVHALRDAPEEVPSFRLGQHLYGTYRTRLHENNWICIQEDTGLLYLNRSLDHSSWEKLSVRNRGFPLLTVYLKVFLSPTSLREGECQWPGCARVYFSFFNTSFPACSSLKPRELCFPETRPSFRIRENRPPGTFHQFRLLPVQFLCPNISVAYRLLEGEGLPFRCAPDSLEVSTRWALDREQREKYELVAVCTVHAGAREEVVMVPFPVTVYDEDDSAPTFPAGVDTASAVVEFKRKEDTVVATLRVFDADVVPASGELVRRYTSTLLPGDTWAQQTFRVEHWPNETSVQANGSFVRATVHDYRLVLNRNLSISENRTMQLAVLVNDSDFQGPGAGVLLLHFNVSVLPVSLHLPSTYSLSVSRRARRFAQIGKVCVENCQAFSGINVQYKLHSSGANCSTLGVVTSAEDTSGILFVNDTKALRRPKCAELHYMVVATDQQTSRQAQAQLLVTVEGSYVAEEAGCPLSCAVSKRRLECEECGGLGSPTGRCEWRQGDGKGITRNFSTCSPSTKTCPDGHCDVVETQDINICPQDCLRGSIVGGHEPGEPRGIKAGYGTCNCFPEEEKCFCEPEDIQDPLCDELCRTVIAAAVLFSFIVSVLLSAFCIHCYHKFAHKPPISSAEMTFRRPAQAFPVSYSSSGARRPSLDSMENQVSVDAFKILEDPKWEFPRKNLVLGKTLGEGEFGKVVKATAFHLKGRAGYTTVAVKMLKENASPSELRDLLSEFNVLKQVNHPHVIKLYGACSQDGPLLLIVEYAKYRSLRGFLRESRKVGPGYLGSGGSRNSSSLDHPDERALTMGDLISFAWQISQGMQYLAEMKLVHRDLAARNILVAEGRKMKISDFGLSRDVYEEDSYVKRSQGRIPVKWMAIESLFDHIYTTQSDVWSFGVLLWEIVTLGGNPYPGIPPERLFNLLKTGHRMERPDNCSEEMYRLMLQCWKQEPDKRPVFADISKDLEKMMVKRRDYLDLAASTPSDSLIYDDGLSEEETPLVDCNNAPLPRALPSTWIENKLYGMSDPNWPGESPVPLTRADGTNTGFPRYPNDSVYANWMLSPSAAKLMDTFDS

Structure (SMILES) | inhibitory activity against RET G810R relative to that of selpercatinib (LOXO-292) [times] | IC50 [1] [nM] | IC50 [nM]
C=CC(=O)Oc1cc(-c2ccc(N3CC4CC(C3)N4Cc3ccc(OC)nc3)nc2)c2c3cn[nH]c3nn2c1 [Compound 242, 4-(6-(6-((6-methoxypyridin-3-yl)methyl)-3,6-diazabicyclo[3.1.1]heptan-3-yl)pyridin-3-yl)-1H-py razolo[3′,4′:3,4]pyrazolo[1,5-α]pyridin-6-yl acrylate] |  | 4.7 | 
CCOc1cc(-c2ccc(N3CCN(Cc4ccc(OC)nc4)C(CO)C3)nc2)c2c3cn[nH]c3nn2c1 (stereo not drawn) [Compound 249, (4-(5-(6-ethoxy-1H-pyrazolo[3′,4′:3,4]pyrazolo[1,5-α]pyridin-4-yl)pyridin-2-yl)-1-((6-methoxypyridin-3-yl)methylene)piperazin-2-yl)methanol] |  | 13.5 | 
CCOc1cc(-c2ccc(N3C4CCC3CN(Cc3ccc(OC)nc3)C4)nc2)c2c3cn[nH]c3nn2c1 [Compound 158, 6-ethoxy-4-(6-((1R,5S)-3-((6-methoxypyridin-3-yl)methyl)-3,8-diazabicyclo[3.2.1]octan-3-yl)pyridin-8-yl)-1H-pyrazolo[3′,4′:3,4]pyrazolo[1,5-α]pyrazole] |  | 18.7 | 
CCOc1cc(-c2ccc(N3CC4(CCN(C(=O)c5c(F)cccc5Cl)C4)C3)nc2)c2c3cn[nH]c3nn2c1 [Compound 189] |  | 15.3 | 
CCOc1cc(-c2cnc(N3CC[C@H](NC(=O)c4ncccc4Cl)[C@@H](O)C3)cn2)c2c3cn[nH]c3nn2c1 [Compound 50] |  | 17.9 | 
CCOc1cc(-c2ccc(N3CCC4(CN(C(=O)c5c(F)cccc5Cl)C4)C3)nc2)c2c3cn[nH]c3nn2c1 [Compound 220, N-(6-(5-(6-ethoxy-1H-pyrazolo[3′,4′:3,4]pyrazolo[1,5-α]pyridin-4-yl)pyridin-2-yl)-2,6-diazaspiro [3.4]octan-2-yl)-2-chloro-6-fluorobenzamide] |  | 26.2 | 
C#CCOc1cc(-c2ccc(N3CC4CC(C3)N4Cc3ccc(OC)nc3)nc2)c2c3cn[nH]c3nn2c1 [Compound 227, 4-(6-(6-((6-methoxypyridin-3-yl)methylene)-3,6-diazabicyclo[3.1.1]heptan-3-yl)pyridin-3-yl)-6-(prop-2-yn-1-yloxy)-1H-pyrazolo[3′,4′:3,4]pyrazolo[1,5-α]pyridine] |  | 4.01 | 
CCOc1cc(-c2ccc(N3CC4COCC(C3)N4C(=O)c3c(F)cccc3Cl)nc2)c2c3cn[nH]c3nn2c1 [Compound 169, N-(7-(5-(6-ethoxy-1H-pyrazolo[3′,4′:3,4]pyrazolo[1,5-α]pyridin-4-yl)pyridin-2-yl)-3-oxa-7,9-azabicyclo[3.3.1]nonan-9-yl)-2-chloro-6-fluorobenzamide] |  | 4.8 | 
CCOc1cc(-c2ccc(N3CCC(CN4CCOCC4)(NC(=O)CC(C)C)CC3)nc2)c2c3cn[nH]c3nn2c1 [Compound 29] |  | 8.8 | 
CCOc1cc(-c2ccc(N3CC4(CCCN(C(=O)c5c(F)cccc5Cl)C4)C3)nc2)c2c3cn[nH]c3nn2c1 [Compound 193, N-(2-(5-(6-ethoxy-1H-pyrazolo[3′,4′:3,4]pyrazolo[1,5-α]pyridin-4-yl)pyridin-2-yl)-2,6-diazaspiro [3.5]nonan-6-yl)-2-chloro-6-fluorobenzamide] |  | 33.7 | 
CCOc1cc(-c2ccc(N3CC4CCC(C3)N4Cc3ccc(OC)nc3)nc2)c2c3cn[nH]c3nn2c1 [Compound 156, 6-ethoxy-4-(6-((1R,5S)-8-((6-methoxypyridin-3-yl)methyl)-3,8-diazabicyclo[3.2.1]octan-3-yl)pyridin-3-yl)-1H-pyrazolo[3′,4′:3,4]pyrazolo[1,5-α]pyrazole] |  | 11.4 | 
CCOc1cc(-c2ccc(N3CCC(Oc4ccc(OC)nn4)CC3)nc2)c2c3cn[nH]c3nn2c1 [Compound 8] |  | 8.7 | 
COc1ccc(CN2C3CC2CN(c2ccc(-c4cc(C#N)cn5nc6[nH]ncc6c45)cn2)C3)cn1 [Compound 243] |  | 89 | 
COc1ccc(CN2C3CC2CN(c2ccc(-c4cc(OCC(=O)O)cn5nc6[nH]ncc6c45)cn2)C3)cn1 [Compound 240, 2-((4-(6-(6-((6-methoxypyridin-3-yl)methyl)-3,6-diazabicyclo[3.1.1]heptan-3-yl)pyridin-3-yl)-1 H-pyrazolo[3′,4′:3,4]pyrazolo[1,5-α]pyridin-6-yl)oxy)acetic acid] |  |  | 4

Continued by falling IC50 [1], values first:

inhibitory activity against RET G810R relative to that of selpercatinib (LOXO-292) [times] | IC50 [1] [nM] | IC50 [nM] | Structure (SMILES)
 | 8 |  | CCOc1cc(-c2ccc(N3C[C@@H]4[C@@H](CNC(=O)c5c(F)cccc5Cl)[C@@H]4C3)nc2)c2c3cn[nH]c3nn2c1 [Compound 183, 2-chloro-N-(((1R,5S,6s)-3-(5-(6-ethoxy-1H-pyrazolo[3′,4′:3,4]pyrazolo[1,5-α]pyridin-4-yl)pyridin-2-yl)-3-azabicyclo[3.1.0]hexan-6-yl)methyl)-6-fluorobenzamide]
 | 5.2 |  | CCOc1cc(-c2ccc(N3CC[C@H](NC(=O)c4ncccc4C(F)(F)F)[C@@H](O)C3)nc2)c2c3cn[nH]c3nn2c1 [Compound 45]
 | 5.1 |  | CCOc1cc(-c2ccc(N3CCC(CN(C)C)(C(=O)NCC(C)C)CC3)nc2)c2c3cn[nH]c3nn2c1 [Compound 35, 4-((dimethylamino)methyl)-1-(5-(6-ethoxy-1H-pyrazolo[3′,4′:3,4]pyrazolo[1,5-α]pyridin-4-yl)pyridin-2-yl)-N-isobutylpiperidine-4-carboxamide]
 | 4.5 |  | CCOc1cc(-c2cnc(N3CCC(C)(NC(=O)c4ncc(F)cc4Cl)CC3)cn2)c2c3cn[nH]c3nn2c1 [Compound 55, 3-chloro-N-(1-(5-(6-ethoxy-1H-pyrazolo[3′,4′:3,4]pyrazolo[1,5-α]pyridin-4-yl)pyrazin-2-yl)-4-methylpiperidin-4-yl)-5-fluoro-2-picolinamide]
 | 4.1 |  | CCOc1cc(-c2ccc(N3C[C@H]4CN(Cc5ccc(OC)nc5)C[C@H]4C3)nc2)c2c3cn[nH]c3nn2c1 [Compound 152, 6-ethoxy-4-(6-((3aR,6aS)-5-((6-methoxypyridin-3-yl)methylene)-hexahydropyrrolo[3,4-c]pyrrol-2(1H)-yl)pyridin-3-yl)-1H-pyrazolo[3′,4′:3,4]pyrazolo[1,5-α]pyridine]
≥ 10 | 3.6 |  | CCOc1cc(-c2ccc(N3CCC(O)(CNS(=O)(=O)c4ccccc4)CC3)nc2)c2c3cn[nH]c3nn2c1 [Compound 102, N-((1-(5-(6-ethoxy-1H-pyrazolo[3′,4′:3,4]pyrazolo[1,5-α]pyridin-4-yl)pyridin-2-yl)-4-hydroxypiperidin-4-yl)methylene)benzenesulfonamide]
≥ 10 | 2.1 |  | CCOc1cc(-c2ccc(N3CCC(CO)(NC(=O)c4ncccc4Cl)CC3)nc2)c2c3cn[nH]c3nn2c1 [Compound 12, 3-chloro-N-(1-(5-(6-ethoxy-1H-pyrazolo[3′,4′:3,4]pyrazolo[1,5-α]pyridin-4-yl)pyridin-2-yl)-4-(hydroxymethyl)piperidin-4-yl)picolinamide]
≥ 10 | 2.1 |  | CCOc1cc(-c2ccc(N3CCC(CN4CCN(CC)CC4)(NC(=O)c4cc(F)ccc4F)CC3)nc2)c2c3cn[nH]c3nn2c1 [Compound 17, N-(1-(5-(6-ethoxy-1H-pyrazolo[3′,4′:3,4]pyrazolo[1,5-α]pyridin-4-yl)pyridin-2-yl)-4-((4-ethylpiperazin-1-yl)methyl)piperidin-4-yl)-2,5-difluorobenzamide]
≥ 10 | 2.1 |  | O=C(N[C@H]1CCN(c2ccc(-c3cc(OCC(F)F)cn4nc5[nH]ncc5c34)cn2)C[C@@H]1O)c1c(F)cccc1F [Compound 296, N-((3S,4S)-1-(5-(6-(2,2-difluoroethoxy)-1H-pyrazolo[3′,4′:3,4]pyrazolo[1,5-α]pyridin-4-yl)pyridin-2-yl)-3-hydroxypiperidin-4-yl)-2,6-difluorobenzamide]
≥ 10 | 2 |  | CCOc1cc(-c2ccc(N3CC[C@H](NC(=O)C(C)C(C)C)[C@@H](O)C3)nc2)c2c3cn[nH]c3nn2c1 (stereo partly drawn) [Compound 89]
≥ 10 | 1.8 |  | O=C(N[C@H]1CCN(c2ccc(-c3cc(OCC(F)F)cn4nc5[nH]ncc5c34)cn2)C[C@H]1O)c1c(F)cccc1Cl [Compound 292, N-((3R,4S)-1-(5-(6-(2,2-difluoroethoxy)-1H-pyrazolo[3′,4′:3,4]pyrazolo[1,5-α]pyridin-4-yl)pyridin-2-yl)piperidin-3-hydroxypiperidin-4-yl)-2-chloro-6-fluorobenzamide]
≥ 10 | 1.6 |  | CCOc1cc(-c2ccc(N3CCC(CN(C)C)(NC(=O)c4c(F)cccc4F)CC3)nc2)c2c3cn[nH]c3nn2c1 [Compound 234, N-(4-((dimethylamino)methyl)-1-(5-(6-ethoxy-1H-pyrazolo[3′,4′:3,4]pyrazolo[1,5-α]pyridin-4-yl)pyridin-2-yl)piperidin-4-yl)-2,6-difluorobenzamide]
≥ 10 | 1.6 |  | CCOc1cc(-c2ccc(N3CCC(CO)(NC(=O)c4cc(F)ccc4F)CC3)nc2)c2c3cn[nH]c3nn2c1 [Compound 291, N-(1-(5-(6-ethoxy-1H-pyrazolo[3′,4′:3,4]pyrazolo[1,5-α]pyridin-4-yl)pyridin-2-yl)-4-(hydroxymethyl)piperidin-4-yl)-2,5-difluorobenzamide]
≥ 10 | 1.2 |  | CCOc1cc(-c2ccc(N3CC[C@H](NC(=O)c4cc(F)ccc4C)[C@H](O)C3)nc2)c2c3cn[nH]c3nn2c1 [Compound 277, N-((3R,4S)-1-(5-(6-ethoxy-1H-pyrazolo[3′,4′:3,4]pyrazolo[1,5-α]pyridin-4-yl)pyridin-2-yl)-3-hydroxypiperidin-4-yl)-5-fluoro-2-methylbenzamide]
≥ 10 | 0.8 |  | CCOc1cc(-c2ccc(N3CC[C@H](NC(=O)c4c(F)cccc4Cl)[C@H](O)C3)nc2)c2c3cn[nH]c3nn2c1 [Compound 275, N-((3R,4S)-1-(5-(6-ethoxy-1H-pyrazolo[3′,4′:3,4]pyrazolo[1,5-α]pyridin-4-yl)pyridin-2-yl)-3-hydroxypiperidin-4-yl)-2-chloro-6-fluorobenzamide]
